From patent publication US20050032646A1, “Agents for the regulation of gametophytic self-incompatibility and a control method for the breakdown of gametophytic self-incompatibility using the agents” (priority 2002, published 2005)

What follows are compounds tested on style-specific S RNase of Fuji apple (assay: Inhibition of the activity of a style-specific S RNase by the agents). Details: enzyme assay, result in words.
Format: biochemical
Description: Inhibition of S RNase activity by an agent of the present invention was measured as follows: The standard solution of 500 μL of 10 mM sodium phosphate (pH 7.0) with an agent (2.0 mM), and 500 μL of torula yeast rRNA (5 mg/mL) was pre-incubated for 10 min at 37° C. To the substrate solution, the 20 μL of the style-specific S RNase (200 ng) of Fuji apple was added, then the solution was incubated for 30 min at 37° C. A fraction of 200 μL was collected and 40 μL of stop buffer (ice-cold 25% HCIO4, 0.75% uranyl acetate) was added, then mixed and centrifuged at 12,000 rpm for 5 min. And 50 μL of the supernatant was diluted with 950 μL of dd H2O, then the solution was centrifuged and measured the optical density at 260 nm (A260) (Singh A. et al., Plant Physilolgy, 96: 61-68,1991).

Compound	inhibiting effect for a style-specific S RNase
Ce2SO4 [reference compound]	didn't show any positive inhibiting effect
O=S(=O)([O-])[O-].[K+].[K+] [K2SO4, reference compound]	didn't show any positive inhibiting effect
O=S(=O)([O-])[O-].[Na+].[Na+] [Na2SO4, reference compound]	didn't show any positive inhibiting effect

Same assay, conditions: optical density at 260 nm (A260), agent 2.0 mM, no treatment 1.10

OD (2.0 mM)	Compound
0.74	O=C[O-].O=C[O-].[Cu+2] [Cu(Il) Formate]
0.69	CCCOCCOCCOCC(=O)[O-].CCCOCCOCCOCC(=O)[O-].[Zn+2] [Zn(II) 2-(2-propoxyethoxy)ethoxyacetate, Zn(II) 2-(2-propoxyethoxy) ethoxyacetate]
0.62	COCCOCCOC(C)C(=O)[O-].COCCOCCOC(C)C(=O)[O-].[Zn+2] (stereo not shown) [Zn(II) 2-{2-(2-methoxyethoxy)ethoxy}propionate]
0.72	CCCOC(C)C(=O)[O-].CCCOC(C)C(=O)[O-].[Cu+2] (stereo not shown) [Cu(II) 2-propoxypropionate]
0.69	C=CC(=O)[O-].C=CC(=O)[O-].[Cu+2] [Cu(II) Acrylate]
0.61	COCCOC(C)C(=O)[O-].COCCOC(C)C(=O)[O-].[Zn+2] (stereo not shown) [Zn(II) 2-(2-methoxyethoxy)propionate, Zn(II) 2-(2-methoxyethoxy) propionate]
0.67	COCCOCCOCCOCC(=O)[O-].COCCOCCOCCOCC(=O)[O-].[Zn+2] [Zn(II) 2-{2-(2-methoxyethoxy)ethoxy} ethoxyacetate]
0.71	COCC(=O)[O-].COCC(=O)[O-].[Zn+2] [Zn(II) methoxyacetate]
0.73	C[C@H](O)C(=O)O.C[C@H](O)C(=O)O.[Zn] [Zn(II) L-lactate]
0.73	CCCOCC(=O)[O-].CCCOCC(=O)[O-].[Cu+2] [Cu(II) propoxyacetate]
0.68	CCCC(=O)[O-].CCCC(=O)[O-].[Zn+2] [Zn(II) Butyrate]
0.72	CCOCC(=O)[O-].CCOCC(=O)[O-].[Cu+2] [Cu(II) ethoxyacetate]
0.66	COCCOCCOCCOCC(=O)[O-].COCCOCCOCCOCC(=O)[O-].[Cu+2] [Cu(II) 2-{2-(2-methoxyethoxy)ethoxy}ethoxyacetate]
0.61	COCCOCCOC(C)C(=O)[O-].COCCOCCOC(C)C(=O)[O-].[Cu+2] (stereo not shown) [Cu(II) 2-{2-(2-methoxyethoxy)ethoxy} propionate]
0.64	COCCOC(C)C(=O)[O-].COCCOC(C)C(=O)[O-].[Cu+2] (stereo not shown) [Cu(II) 2-(2-methoxyethoxy)propionate, Cu(II) 2-(2-methoxyethoxy) propionate]
0.73	CCOCC(=O)[O-].CCOCC(=O)[O-].[Zn+2] [Zn(II) ethoxyacetate]
0.72	COCC(=O)[O-].COCC(=O)[O-].[Cu+2] [Cu(II) methoxyacetate]

Compound	OD (2.0 mM)
Cc1ccc(S(=O)(=O)[O-])cc1.Cc1ccc(S(=O)(=O)[O-])cc1.[Cu+2] [Cu(II) p-toluene sulfonate]	0.72
COCCOCCOc1ccc(S(=O)(=O)[O-])cc1.COCCOCCOc1ccc(S(=O)(=O)[O-])cc1.[Zn+2] [Zn(II) 4-{2-(2-methoxyethoxy)ethoxy}benzene sulfonate]	0.68
COCCOCCOc1ccc(S(=O)(=O)[O-])cc1.COCCOCCOc1ccc(S(=O)(=O)[O-])cc1.[Cu+2] [Cu(II) 4-{2-(2-methoxyethoxy)ethoxy} benzene sulfonate]	0.68
O=S(=O)([O-])c1ccccc1.O=S(=O)([O-])c1ccccc1.[Zn+2] [Zn(II) Benzene sulfonate]	0.74
CCOCCOc1ccc(S(=O)(=O)[O-])cc1.CCOCCOc1ccc(S(=O)(=O)[O-])cc1.[Zn+2] [Zn(II) 4-(2-ethoxyethoxy) benzene sulfonate]	0.72
